A short description of data set [1]: Solubility data of compounds in water over the pH range. Format: physicochemical.
In data set [2] the target is T1, human MC4 receptor (Homo sapiens, UniProt P32245).
T1 construct: expressed in transfected cells
As to the kind of experiment: Assay (V) Melanocortin Receptor 4 (MC4) binding assay. The following applies: 125NDP-α-MSH binding, BHK cell membranes. Here is the method: Assay (V)—Melanocortin Receptor 4 (MC4) Binding Assay
In vitro ^125NDP-α-MSH binding to recombinant BHK cells expressing human MC4 receptor (filtration assay).
The assay is performed in 5 ml minisorb vials (Sarstedt No. 55.526) or in 96-well filterplates (Millipore MADVN 6550), and using BHK cells expressing the human MC4 receptor using BHK cells stably expressing the human MC4 receptor. The membranes were prepared from frozen or fresh cells that were homogenized in 20 mM HEPES pH 7.1, 5 mM MgCl2 and 1 mg/ml bacitracin and centrifuged at 15000 rpm at 4° C., 10 min in a Sorvall RC 5B plus, SS-34 rotor. The supernatant was discarded, and the pellets were re-suspended in buffer, homogenized and centrifuged two more times. The final pellets were resuspended in the buffer mentioned above, and the protein concentration was measured and adjusted with buffer to 14 to 17 mg/ml and the membrane preparation were kept at −80° C. until assay. The assay was run directly on a dilution of this cell membrane suspension, without any further preparation. The BHK cell membranes are kept at −80° C. until assay, and the assay is run directly on a dilution of this cell membrane suspension, without further preparation. The suspension is diluted to give maximally 10% specific binding, i.e. to approx. 50-100 fold dilution. The assay is performed in a total volume of 200 μl: 50 μl of cell suspension, 50 μl of ^125NDP-α-MSH (≈79 pM in final concentration), 50 μl of test compound and 50 μl binding buffer (pH 7) mixed and incubated for 2 h at 25° C. [binding buffer: 25 mM HEPES, pH 7.0, 1 mM CaCl2, 1 mM MgSO4, 1 mM EGTA, 0.02% Bacitracin, 0.005% Tween™ 20 and 0.1% HSA or, alternatively, 0.1% ovalbumin (Sigma; catalogue No. A-5503)]. Test compounds are dissolved in DMSO and diluted in binding buffer. Radiolabelled ligand and membranes are diluted in binding buffer. The incubation is stopped by dilution with 2×100 μl ice-cold 0.9% NaCl. The radioactivity retained on the filters is counted using a Cobra II auto gamma counter.
(§1) The data are analysed by non-linear regression analysis of binding curves, using the Windows™ program GraphPad™ Prism (GraphPad Software, USA).

In data set [3] the target is T2, MC1 receptor (Homo sapiens, UniProt Q01726).
T2 construct: expressed in transfected cells
As to the kind of experiment: Assay (IV) Melanocortin Receptor 1 (MC1) binding assay. Here is the method: Assay (IV)—Melanocortin Receptor 1 (MC1) Binding Assay
The MC1 receptor binding assay is performed on BHK cell membranes stably expressing the MC1 receptor. The assay is performed in a total volume of 250 NI: 25 μl of ^125NDP-α-MSH (22 pM in final concentration), 25 μl of test compound/control and 200 μl of cell membrane (25 μg/ml). Test compounds are dissolved in DMSO. Radioactively labeled ligand, membranes and test compounds are diluted in buffer: 25 mM HEPES, pH 7.4, 0.1 mM CaCl2, 1 mM MgSO4, 1 mM EDTA, 0.1% HSA and 0.005% Tween™ 20. Alternatively, HSA may be substituted with ovalbumin. The samples are incubated at 30° C. for 90 min. in Costar round-bottom microtiter plates. Incubation is terminated by filtration on a Packard harvester filtermate. Rapid filtration through Packard Unifilter-96 GF/B filters pre-treated with polyethylenimine (PerkinElmer 6005277). The filters are washed with ice-cold 0.9% NaCl 8-10 times. The plates is air dried at app. 55° C. for 30 min, and 50 μl Microscint 0 (Packard, cat. No. 6013616) is added to each well. The plates are counted in a Topcounter (1 min/well).
as §1

Where [4] appears, read: 125NDP-α-MSH binding, BHK cell membranes, read-out: Assay (IV) MC1 Ki.

Converted amounts (≈) assume the structure as drawn. Like-named read-outs stand apart in the source and are kept apart here. Where a SMILES comes first, the peptide text is derived from it. Bridges are numbered along the chain shown (N, C = ends). [ ]: non-standard residue; d: D form. The star is where a group is joined. Palmitoyl(16-(5-tetrazolyl)) = O=C(CCCCCCCCCCCCCCCc1nnn[nH]1)*; Hyp = O=C(O)[C@@H]1C[C@@H](O)CN1; NTA = O=C(O)CN(CC(=O)O)CC(=O)*; Nle = CCCC[C@H](N)C(=O)O; Orn = NCCC[C@H](N)C(=O)O; Dap = NC[C@H](N)C(=O)O; AEEA = NCCOCCOCC(=O)O

T1 sequence (P32245 whole entry): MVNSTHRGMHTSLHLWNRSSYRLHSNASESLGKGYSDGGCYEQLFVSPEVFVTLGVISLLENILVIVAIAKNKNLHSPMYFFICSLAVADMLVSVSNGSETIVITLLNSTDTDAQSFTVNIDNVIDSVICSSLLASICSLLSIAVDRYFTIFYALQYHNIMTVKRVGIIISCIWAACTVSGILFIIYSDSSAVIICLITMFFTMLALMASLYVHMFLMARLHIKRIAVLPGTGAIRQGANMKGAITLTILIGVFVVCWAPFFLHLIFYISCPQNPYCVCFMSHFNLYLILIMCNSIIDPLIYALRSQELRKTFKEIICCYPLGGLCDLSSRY
T2 sequence (Q01726 whole entry): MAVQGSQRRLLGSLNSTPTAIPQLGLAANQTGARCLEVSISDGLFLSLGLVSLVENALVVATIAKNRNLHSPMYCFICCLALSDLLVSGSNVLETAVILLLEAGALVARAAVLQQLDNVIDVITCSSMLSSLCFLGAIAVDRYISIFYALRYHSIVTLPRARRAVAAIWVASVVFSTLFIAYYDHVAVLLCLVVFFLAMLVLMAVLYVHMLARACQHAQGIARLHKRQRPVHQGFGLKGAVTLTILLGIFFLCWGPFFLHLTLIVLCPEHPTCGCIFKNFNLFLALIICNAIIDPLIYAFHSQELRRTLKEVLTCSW

As a reminder, the solubility is the dissolved amount per volume that the medium holds. For orientation: Ki means the dissociation constant of the complex between target and ligand, obtained from inhibition or displacement. With `CCCC[C@H](NC(=O)[C@H](CCCNC(=O)CN(CC(=O)O)CC(=O)O)NC(=O)[C@H](Cc1c[nH]cn1)NC(=O)[C@H](CCC(N)=O)NC(=O)[C@H](CO)NC(=O)CNC(=O)COCCOCCNC(=O)CCCCCCCCCCCCCCCc1nnn[nH]1)C(=O)N[C@H]1CCC(=O)NCCCC[C@@H](C(N)=O)NC(=O)[C@H](Cc2c[nH]c3ccccc23)NC(=O)[C@H](CCCNC(=N)N)NC(=O)[C@@H](Cc2ccccc2)NC(=O)[C@@H]2C[C@@H](O)CN2C1=O` [Example 8, (2-{2-[16-(Tetrazol-5-yl)hexadecanoylamino]ethoxy}ethoxy)acetyl-Gly-Ser-Gln-His-Orn(BCMA)-Nle-c[Glu-Hyp-D-Phe-Arg-Trp-Lys]-NH2] ({Palmitoyl(16-(5-tetrazolyl))-AEEA}-GSQH[Orn](NTA)[Nle]E[Hyp][dF]RWK-NH2; lactam 7-12), the solubility at 3 days in data set [1] (pH 2.96, pH 2.96, read-out: Conc (solubility in water)) came to 716 µM (≈ 1520 µg/mL); in data set [1] (pH 4.1, pH 4.1, read-out: Conc (solubility in water)), 536 µM (≈ 1140 µg/mL); in data set [1] (pH 4.24, pH 4.24, read-out: Conc (solubility in water)) it was 389 µM (≈ 825 µg/mL); in data set [1] (pH 4.87, pH 4.87, read-out: Conc (solubility in water)), 34 µM (≈ 72.1 µg/mL); in data set [1] (pH 5.9, pH 5.9, read-out: Conc (solubility in water)) it was 10 µM (≈ 21.2 µg/mL); in data set [1] (pH 6.7, pH 6.7, read-out: Conc (solubility in water)), 26 µM (≈ 55.1 µg/mL). In addition, the solubility at 3 days came to 271 µM (≈ 575 µg/mL) in data set [1] (pH 7.45, pH 7.45, read-out: Conc (solubility in water)); 116 µM (≈ 246 µg/mL) in data set [1] (pH 7.47, pH 7.47, read-out: Conc (solubility in water)); 280 µM (≈ 594 µg/mL) in data set [1] (pH 7.75, pH 7.75, read-out: Conc (solubility in water)); 546 µM (≈ 1160 µg/mL) in data set [1] (pH 7.95, pH 7.95, read-out: Conc (solubility in water)). For the same compound, the Ki was 0.9 nM in data set [2] (Assay (V) MC4 [Ki] (nM)) and greater than 10000 nM in data set [3].
As for `CCCC[C@H](NC(=O)[C@H](CNC(=O)CN(CC(=O)O)CC(=O)O)NC(=O)[C@H](CO)NC(=O)[C@H](CCC(N)=O)NC(=O)[C@H](CO)NC(=O)CNC(=O)COCCOCCNC(=O)COCCOCCNC(=O)COCCOCCNC(=O)COCCOCCNC(=O)CCCCCCCCCCCCCCCc1nnn[nH]1)C(=O)N[C@H]1CCC(=O)NCCCC[C@@H](C(N)=O)NC(=O)[C@H](Cc2c[nH]c3ccccc23)NC(=O)[C@H](CCCNC(=N)N)NC(=O)[C@@H](Cc2ccccc2)NC(=O)[C@@H]2C[C@@H](O)CN2C1=O` [Example 14, (2-{2-[2-(2-{2-[2-(2-{2-[2-(2-{2-[16-(Tetrazol-5-yl)hexadecanoylamino]ethoxy}ethoxy)acetylamino]ethoxy}ethoxy)acetylamino]ethoxy}ethoxy)acetylamino]ethoxy}ethoxy)acetyl-Gly-Ser-Gln-Ser-Dap(BCMA)-Nle-c[Glu-Hyp-D-Phe-Arg-Trp-Lys]-NH2] ({Palmitoyl(16-(5-tetrazolyl))-AEEA-AEEA-AEEA-AEEA}-GSQS[Dap](NTA)[Nle]E[Hyp][dF]RWK-NH2; lactam 7-12), the solubility at 3 days in data set [1] (pH 3.18) stood at 19 µM (≈ 47.1 µg/mL); in data set [1] (pH 4.62) it was 15 µM (≈ 37.2 µg/mL); in data set [1] (pH 4.66), 23 µM (≈ 57 µg/mL); in data set [1] (pH 5.07), 18 µM (≈ 44.6 µg/mL); in data set [1] (pH 5.37), 10 µM (≈ 24.8 µg/mL); in data set [1] (pH 5.84), 41 µM (≈ 102 µg/mL). The solubility at 3 days in data set [1] (pH 6.5) stood at 19 µM (≈ 47.1 µg/mL); in data set [1] (pH 7) it was 17 µM (≈ 42.1 µg/mL); in data set [1] (pH 7.29), 20 µM (≈ 49.6 µg/mL); in data set [1] (pH 7.43), 29 µM (≈ 71.9 µg/mL). For the same compound, the Ki in data set [2] (read-out: Assay (V) MC4 [Ki]) was 8.65 nM; in data set [3] (setting [4]), greater than 10000 nM.
Regarding `CCCC[C@H](NC(=O)[C@H](CNC(=O)CN(CC(=O)O)CC(=O)O)NC(=O)[C@H](Cc1c[nH]cn1)NC(=O)[C@H](CCC(N)=O)NC(=O)[C@H](CO)NC(=O)CNC(=O)COCCOCCNC(=O)COCCOCCNC(=O)COCCOCCNC(=O)COCCOCCNC(=O)CCCCCCCCCCCCCCCc1nnn[nH]1)C(=O)N[C@H]1CCC(=O)NCCCC[C@@H](C(N)=O)NC(=O)[C@H](Cc2c[nH]c3ccccc23)NC(=O)[C@H](CCCNC(=N)N)NC(=O)[C@@H](Cc2ccccc2)NC(=O)[C@@H]2C[C@@H](O)CN2C1=O` [Example 16, (2-{2-[2-(2-{2-[2-(2-{2-[2-(2-{2-[16-(Tetrazol-5-yl)hexadecanoylamino]ethoxy}ethoxy)acetylamino]ethoxy}ethoxy)acetylamino]ethoxy}ethoxy)acetylamino]ethoxy}ethoxy)acetyl-Gly-Ser-Gln-His-Dap(BCMA)-Nle-c[Glu-Hyp-D-Phe-Arg-Trp-Lys]-NH2] ({Palmitoyl(16-(5-tetrazolyl))-AEEA-AEEA-AEEA-AEEA}-GSQH[Dap](NTA)[Nle]E[Hyp][dF]RWK-NH2; lactam 7-12), the solubility at 3 days in data set [1] (pH 3.18) stood at 531 µM (≈ 1340 µg/mL); in data set [1] (pH 4.32) it was 515 µM (≈ 1300 µg/mL); in data set [1] (pH 4.67) it was 492 µM (≈ 1240 µg/mL); in data set [1] (pH 4.89), 450 µM (≈ 1140 µg/mL); in data set [1] (pH 4.98), 347 µM (≈ 877 µg/mL); in data set [1] (pH 5.75), 41 µM (≈ 104 µg/mL). The solubility at 3 days is 51 µM (≈ 129 µg/mL) in data set [1] (pH 6.37), 93 µM (≈ 235 µg/mL) in data set [1] (pH 6.66), 454 µM (≈ 1150 µg/mL) in data set [1] (pH 7.3) and 596 µM (≈ 1510 µg/mL) in data set [1] (pH 7.66). Moreover, the Ki in data set [2] (read-out: Assay (V) MC4 [Ki]) is 2.75 nM; in data set [3] (setting [4]), greater than 10000 nM.
Regarding `CCCC[C@H](NC(=O)[C@H](CNC(=O)CN(CC(=O)O)CC(=O)O)NC(=O)[C@H](Cc1c[nH]cn1)NC(=O)[C@H](CCC(N)=O)NC(=O)[C@H](CO)NC(=O)[C@H](CCC(=O)O)NC(=O)COCCOCCNC(=O)CCCCCCCCCCCCCCCc1nnn[nH]1)C(=O)N[C@H]1CCC(=O)NCCCC[C@@H](C(N)=O)NC(=O)[C@H](Cc2c[nH]c3ccccc23)NC(=O)[C@H](CCCNC(=N)N)NC(=O)[C@@H](Cc2ccccc2)NC(=O)[C@@H]2C[C@@H](O)CN2C1=O` [Example 17, (2-{2-[16-(Tetrazol-5-yl)hexadecanoylamino]ethoxy}ethoxy)acetyl-Glu-Ser-Gln-His-Dap(BCMA)-Nle-c[Glu-Hyp-D-Phe-Arg-Trp-Lys]-NH2] ({Palmitoyl(16-(5-tetrazolyl))-AEEA}-ESQH[Dap](NTA)[Nle]E[Hyp][dF]RWK-NH2; lactam 7-12), the solubility at 3 days in data set [1] (pH 3.32, pH 3.32, read-out: Conc (solubility in water)) amounted to 34 µM (≈ 73.6 µg/mL); in data set [1] (pH 3.76, pH 3.76, read-out: Conc (solubility in water)), 25 µM (≈ 54.1 µg/mL); in data set [1] (pH 4.31, pH 4.31, read-out: Conc (solubility in water)), 20 µM (≈ 43.3 µg/mL); in data set [1] (pH 4.56, pH 4.56, read-out: Conc (solubility in water)) it was 20 µM (≈ 43.3 µg/mL); in data set [1] (pH 4.94, pH 4.94, read-out: Conc (solubility in water)), 23 µM (≈ 49.8 µg/mL); in data set [1] (pH 5.55, pH 5.55, read-out: Conc (solubility in water)) it was 39 µM (≈ 84.4 µg/mL). Moreover, the solubility at 3 days worked out at 127 µM (≈ 275 µg/mL) in data set [1] (pH 6.04, pH 6.04, read-out: Conc (solubility in water)); 226 µM (≈ 489 µg/mL) in data set [1] (pH 6.34, pH 6.34, read-out: Conc (solubility in water)); 303 µM (≈ 656 µg/mL) in data set [1] (pH 6.89, pH 6.89, read-out: Conc (solubility in water)); 351 µM (≈ 760 µg/mL) in data set [1] (pH 7.62, pH 7.62, read-out: Conc (solubility in water)). Besides, the Ki is 5.4 nM in data set [2] (read-out: Assay (V) MC4 [Ki]) and greater than 10000 nM in data set [3] (setting [4]).
